In PubChem BioAssay (NCI):
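Method: 48-hour compound exposure of cells in 96-well plates, five concentrations, linear interpolation of endpoints. At the TGI there is no net growth.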

Legend:
Experiment in all cases: inhibition of tumour cell growth, NCI panel, 48 h
[1] = system: UACC-257 melanoma
[2] = system: COLO 205 colon
[3] = system: SNB-19 CNS
[4] = system: NCI-H226 lung
[5] = system: NCI-H23 lung
[6] = system: HT29 colon
[7] = system: HL-60(TB) leukemia
[8] = system: PC-3 prostate
[9] = system: HS 578T breast
[10] = system: KM12 colon
[11] = system: RPMI-8226 leukemia
[12] = system: NCI-H460 lung
[13] = system: NCI/ADR-RES ovarian
[14] = system: SN12C renal
[15] = system: SF-295 CNS
[16] = system: SF-268 CNS
[17] = system: OVCAR-5 ovarian
[18] = system: 786-0 renal
[19] = system: NCI-H522 lung
[20] = system: OVCAR-3 ovarian
[21] = system: A549 NSCLC
[22] = system: CAKI-1 renal
[23] = system: LOX IMVI melanoma
[24] = system: RXF 393 renal
[25] = system: SR leukemia
[26] = system: DU-145 prostate
[27] = system: HCT-15 colon
[28] = system: OVCAR-8 ovarian
[29] = system: SW-620 colon
[30] = system: MDA-N
[31] = system: IGROV1 ovarian
[32] = system: MOLT-4 leukemia
[33] = system: SF-539 CNS
[34] = system: U251 CNS
[35] = system: SK-MEL-5 melanoma
[36] = system: ACHN renal
[37] = system: UO-31 renal
[38] = system: MDA-MB-231 breast
[39] = system: MCF7 breast
[40] = system: HCT-116 colon
[41] = system: MDA-MB-435
[42] = system: CCRF-CEM leukemia
[43] = system: T-47D breast
[44] = system: M14 melanoma
[45] = system: HOP-62 NSCLC
[46] = system: HOP-92 NSCLC
[47] = system: UACC-62 melanoma
[48] = system: K-562 leukemia
[49] = system: SK-MEL-2 melanoma
[50] = system: SK-OV-3 ovarian
[51] = system: OVCAR-4 ovarian
[52] = system: A498 renal
[53] = system: SNB-75 CNS
[54] = system: EKVX NSCLC
[55] = system: TK-10 renal
[56] = system: SK-MEL-28 melanoma
[57] = system: MALME-3M melanoma
[58] = system: HCC-2998 colon

COc1ccccc1-c1cc(=O)c2ccccc2n1C1CC1
TGI [1]: 26.6 µM
TGI [2]: 11.1 µM
TGI [3]: 34.3 µM
TGI [4]: 15 µM
TGI [5]: 22.8 µM
TGI [6]: 4.37 µM
TGI [7]: 35.5 µM
TGI [8]: 27.8 µM
TGI [9]: 25.7 µM
TGI [10]: 12 µM
TGI [11]: 5.64 µM
TGI [12]: 15.7 µM
TGI [13]: 31.3 µM
TGI [14]: 19.5 µM
TGI [15]: 7.99 µM
TGI [16]: 20.5 µM
TGI [17]: 14.2 µM
TGI [18]: 15.3 µM
TGI [19]: 5.63 µM
TGI [20]: 11 µM
TGI [21]: 12.8 µM
TGI [22]: 14.1 µM
TGI [23]: 15.5 µM
TGI [24]: 6.62 µM
TGI [25]: 18.7 µM
TGI [26]: 14.4 µM
TGI [27]: 12.2 µM
TGI [28]: 18.1 µM
TGI [29]: 15.8 µM
TGI [30]: 18 µM
TGI [31]: 44 µM
TGI [32]: 45.9 µM
TGI [33]: 16.5 µM
TGI [34]: 14.2 µM
TGI [35]: 14.8 µM
TGI [36]: 5.78 µM
TGI [37]: 19 µM
TGI [38]: 16 µM
TGI [39]: 18.7 µM
TGI [40]: 10.4 µM
TGI [41]: 12.5 µM
TGI [42]: 56.1 µM
TGI [43]: 9.73 µM
TGI [44]: 16.2 µM
TGI [45]: 15.4 µM
TGI [46]: 19.8 µM
TGI [47]: 11.5 µM
TGI [48]: > 100 µM
TGI [49]: 8.07 µM
TGI [50]: 41.1 µM

C=CCCC1CCCCC/C1=N\N(C)C (stereo unspecified)
TGI [1]: > 100 µM
TGI [2]: > 100 µM
TGI [3]: > 100 µM
TGI [4]: > 100 µM
TGI [5]: > 100 µM
TGI [6]: > 100 µM
TGI [7]: > 100 µM
TGI [8]: > 100 µM
TGI [9]: > 100 µM
TGI [51]: > 100 µM
TGI [10]: > 100 µM
TGI [11]: > 100 µM
TGI [12]: > 100 µM
TGI [13]: > 100 µM
TGI [14]: > 100 µM
TGI [15]: > 100 µM
TGI [16]: > 100 µM
TGI [17]: > 100 µM
TGI [52]: > 100 µM
TGI [18]: > 100 µM
TGI [19]: > 100 µM
TGI [20]: > 100 µM
TGI [21]: > 100 µM
TGI [22]: > 100 µM
TGI [23]: > 100 µM
TGI [25]: > 100 µM
TGI [26]: > 100 µM
TGI [27]: > 100 µM
TGI [53]: > 100 µM
TGI [28]: > 100 µM
TGI [54]: > 100 µM
TGI [29]: > 100 µM
TGI [30]: > 100 µM
TGI [31]: > 100 µM
TGI [32]: > 100 µM
TGI [33]: > 100 µM
TGI [34]: > 100 µM
TGI [35]: > 100 µM
TGI [36]: > 100 µM
TGI [37]: > 100 µM
TGI [38]: > 100 µM
TGI [39]: > 100 µM
TGI [55]: > 100 µM
TGI [40]: > 100 µM
TGI [41]: > 100 µM
TGI [42]: > 100 µM
TGI [43]: > 100 µM
TGI [44]: > 100 µM
TGI [45]: > 100 µM
TGI [46]: > 100 µM
TGI [47]: > 100 µM
TGI [56]: > 100 µM
TGI [48]: > 100 µM
TGI [49]: > 100 µM
TGI [50]: > 100 µM

Clc1ccc(C2ON=C(c3ccccc3)N2C23CC4CC(CC(C4)C2)C3)c(Cl)c1 (stereo unspecified)
TGI [1]: > 10 µM
TGI [2]: > 10 µM
TGI [3]: > 10 µM
TGI [4]: > 10 µM
TGI [5]: > 10 µM
TGI [6]: > 10 µM
TGI [8]: > 10 µM
TGI [9]: > 10 µM
TGI [51]: > 10 µM
TGI [10]: > 10 µM
TGI [11]: > 10 µM
TGI [12]: > 10 µM
TGI [13]: > 10 µM
TGI [14]: > 10 µM
TGI [15]: > 10 µM
TGI [16]: > 10 µM
TGI [17]: > 10 µM
TGI [52]: > 10 µM
TGI [18]: > 10 µM
TGI [19]: > 10 µM
TGI [20]: > 10 µM
TGI [21]: > 10 µM
TGI [22]: > 10 µM
TGI [23]: > 10 µM
TGI [24]: > 10 µM
TGI [26]: > 10 µM
TGI [27]: > 10 µM
TGI [57]: > 10 µM
TGI [53]: > 10 µM
TGI [28]: > 10 µM
TGI [58]: > 10 µM
TGI [54]: > 10 µM
TGI [29]: > 10 µM
TGI [30]: > 10 µM
TGI [31]: > 10 µM
TGI [32]: > 10 µM
TGI [33]: > 10 µM
TGI [34]: > 10 µM
TGI [35]: > 10 µM
TGI [36]: > 10 µM
TGI [37]: > 10 µM
TGI [38]: > 10 µM
TGI [39]: > 10 µM
TGI [55]: > 10 µM
TGI [40]: > 10 µM
TGI [41]: > 10 µM
TGI [42]: > 10 µM
TGI [43]: > 10 µM
TGI [44]: > 10 µM
TGI [45]: > 10 µM
TGI [46]: > 10 µM
TGI [47]: > 10 µM
TGI [56]: > 10 µM
TGI [48]: > 10 µM
TGI [49]: > 10 µM
TGI [50]: > 10 µM
